Data on nine compounds can be found in ChEMBL document CHEMBL1129861, “SAR for MHC class II binding tetrapeptides: Correlation with potential binding site” (Bioorg Med Chem Lett, 1997).

For assay [1], the target named is HLA-DRB1*01:01. The assay is described as follows: Inhibitory concentration to inhibit the binding of biotinylated rat myelin basic protein peptide (RMBP90-102) against DR1 allele of class II MHC for 20 min.
The target of assay [2] is HLA-DRB1*01:01. The assay is described as follows: Inhibitory concentration required to inhibit the binding of biotinylated rat myelin basic protein peptide (RMBP90-102) against DR1 allele of class II for 5 hr.
Assay [3] is filed under the species Rattus norvegicus. Kind of assay: Inhibitory concentration of compound to inhibit the binding of biotinylated rat myelin basic protein peptide (RMBP90-102) against DR4 allele of class II for 20 min. The class given is functional.
Assay [4] is filed under the species Rattus norvegicus. Kind of assay: Inhibitory concentration of compound to inhibit the binding of biotinylated rat myelin basic protein peptide (RMBP90-102) against DR4 allele of class II for 5 hr. The class given is functional.
The species entered for assay [5] is Rattus norvegicus. Kind of assay: Inhibitory concentration of compound to inhibit the binding of biotinylated rat myelin basic protein peptide (RMBP90-102) against DR1 allele of class II for 45 min. The class given is functional.

The term IC50 denotes the concentration that inhibits the measured activity by half. Read a low IC50 as inhibition by little substance.

Each structure is given as a SMILES string. Residues, ends and D or L forms follow the SMILES beside them. *: point of attachment. Ethoxycarbonyl = CCOC(=O)*

With `CCOC(=O)N[C@H](Cc1ccc(OC)cc1)C(=O)N[C@H](C(=O)N[C@@H](C)C(=O)N[C@@H](CC(C)C)C(N)=O)C(C)C`, the IC50 was 46 nM in assay [1] and 180 nM in assay [2].
Taken in the same sequence, the figures for `CCOC(=O)N[C@H](CC(=O)c1ccccc1)C(=O)N[C@H](C(=O)N[C@@H](C)C(=O)N[C@@H](CC(C)C)C(N)=O)C(C)C` were 5700 nM and 45000 nM.
In the case of `CCOC(=O)N[C@H](Cc1ccc(Cl)cc1)C(=O)N[C@H](C(=O)N[C@@H](C)C(=O)N[C@@H](CC(C)C)C(N)=O)C(C)C`, the IC50 in assay [1] came out at 19 nM; in assay [2], 73 nM.
Taken in the same sequence, the figures for `CCOC(=O)N[C@H](Cc1ccc(OC(C)=O)cc1)C(=O)N[C@H](C(=O)N[C@@H](C)C(=O)N[C@@H](CC(C)C)C(N)=O)C(C)C` were 240 nM and 1900 nM.
For `CCOC(=O)N[C@H](CSCc1ccccc1)C(=O)N[C@H](C(=O)N[C@@H](C)C(=O)N[C@@H](CC(C)C)C(N)=O)C(C)C`, the results for the IC50 in assay [1] and in assay [2] were 270 nM and 7000 nM, respectively.
Taken in the same sequence, the figures for `CCOC(=O)N[C@H](Cc1cccnc1)C(=O)N[C@H](C(=O)N[C@@H](C)C(=O)N[C@@H](CC(C)C)C(N)=O)C(C)C` were 5300 nM and 28000 nM.
For the compound `CCOC(=O)N[C@@H](Cc1ccccc1)C(=O)N[C@H](C(=O)N[C@@H](C)C(=O)N[C@@H](CC(=O)O)C(N)=O)C(C)C` (Ethoxycarbonyl-FVAD-NH2), the IC50 was 1200 nM in assay [3] and 50000 nM in assay [4].
As to `CCOC(=O)N[C@@H](Cc1ccccc1)C(=O)N[C@H](C(=O)N[C@@H](C)C(=O)N[C@@H](CC(C)C)C(N)=O)C(C)C` (Ethoxycarbonyl-FVAL-NH2), the half-inhibitory concentration (IC50) in assay [3] is 8200 nM.
`CC(C)C[C@H](NC(=O)[C@H](C)NC(=O)[C@@H](NC(=O)[C@@H](N)Cc1ccccc1)C(C)C)C(N)=O` (H-FVAL-NH2) yielded an IC50 in assay [5] of 1800 nM.
